Our source for the CC50 and EC50 values is US20250122219A1 (priority 2023, published 2025).

pEC50: −log10 of the molar value.

Data set [1] can be described thus: Cytotoxicity assay in MT-4 cells. In kind it is cell-based. The following applies: human; uninfected MT-4 cells, 5 days incubation, Cell Titer Glo; read-out: MT4 CC50. The procedure, abridged: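 Viability read by Cell Titer Glo luminescence after 5 days at 37 °C. MT-4 cells, not infected, in complete RPMI (10% FBS), received compound dilution series. Base cytotoxicity set with […] puromycin.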

The subject of the next data set is HIV-1 (IIIB). Nature of the data set: Antiviral assay in MT-4 cells. In kind it is cell-based. The note with it: Human immunodeficiency virus 1, MT4, 120 h; HIV-1 IIIB in MT-4 cells, 5 days incubation, Cell Titer Glo; read-out: MT4 EC50. Put shortly: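 Read-out: CellTiter-Glo luminescence after 5 days at 37 °C, reflecting survival of MT-4 cells infected with HIV-1 IIIB (1:250 fresh stock dilution) versus mock-infected. Compounds serially diluted into RPMI with 10% FBS; AZT at 5 μM served as positive control.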

As for `CCOC(=O)Oc1c2n(cc(C(=O)NCc3ccc(F)cc3F)c1=O)[C@@H]1CN(C2=O)[C@@H](C)CC[C@]12CC(C)=NO2` [Example 123, (3′S,5S,7′R)-10′-((2,4-difluorobenzyl)carbamoyl)-3,3′-dimethyl-1′,11′-dioxo-1′,4′,5′,11′-tetrahydro-3′H,4H,7′H-spiro[isoxazole-5,6′-[2,7]methanopyrido[1,2-a][1,4]diazonin]-12′-yl ethyl carbonate], in data set [1], the CC50 at 5 days was determined as 14.1 µM. Further, the negative logarithm of the EC50 (pEC50) in the data set with HIV-1 (IIIB) was 8.76.
For `CCOC(=O)Oc1c2n(cc(C(=O)NCc3ccc(F)cc3F)c1=O)[C@@H]1CN(C2=O)[C@@H](C)CC[C@]12CC(OC)=NO2` [Example 124, (3′S,5S,7′R)-10′-((2,4-difluorobenzyl)carbamoyl)-3-methoxy-3′-methyl-1′,11′-dioxo-1′,4′,5′,11′-tetrahydro-3′H,4H,7′H-spiro[isoxazole-5,6′-[2,7]methanopyrido[1,2-a][1,4]diazonin]-12′-yl ethyl carbonate], the CC50 at 5 days in data set [1] amounted to 17.1 µM. In addition, the pEC50 in the data set with HIV-1 (IIIB) was 9.05.
Consider `CCCCOC(=O)Oc1c2n(cc(C(=O)NCc3ccc(F)cc3F)c1=O)[C@@H]1CN(C2=O)[C@@H](C)CC[C@]12CC(C)=NO2` [Example 127, butyl butyl ((3′S,5S,7′R)-10′-((2,4-difluorobenzyl)carbamoyl)-3,3′-dimethyl-1′,11′-dioxo-1′,4′,5′,11′-tetrahydro-3′H,4H,7′H-spiro[isoxazole-5,6′-[2,7]methanopyrido[1,2-a][1,4]diazonin]-12′-yl) carbonate], for which the CC50 at 5 days in data set [1] is 13.3 µM. In addition, the negative logarithm of the EC50 (pEC50) in the data set with HIV-1 (IIIB) is 9.70.
On to `CCCCOC(=O)Oc1c2n(cc(C(=O)NCc3ccc(F)cc3F)c1=O)[C@@H]1CN(C2=O)[C@@H](C)CC[C@]12CC(OC)=NO2` [Example 128, butyl ((3′S,5S,7′R)-10′-((2,4-difluorobenzyl)carbamoyl)-3-methoxy-3′-methyl-1′,11′-dioxo-1′,4′,5′,11′-tetrahydro-3′H,4H,7′H-spiro[isoxazole-5,6′-[2,7]methanopyrido[1,2-a][1,4]diazonin]-12′-yl) carbonate], for which the CC50 at 5 days in data set [1] worked out at 19.3 µM. The negative-log EC50 (pEC50) in the data set on HIV-1 (IIIB) is 9.68.
For `CCCCCOC(=O)Oc1c2n(cc(C(=O)NCc3ccc(F)cc3F)c1=O)[C@@H]1CN(C2=O)[C@@H](C)CC[C@]12CC(C)=NO2` [Example 129, (3′S,5S,7′R)-10′-((2,4-difluorobenzyl)carbamoyl)-3,3′-dimethyl-1′,11′-dioxo-1′,4′,5′,11′-tetrahydro-3′H,4H,7′H-spiro[isoxazole-5,6′-[2,7]methanopyrido[1,2-a][1,4]diazonin]-12′-yl pentyl carbonate], the CC50 at 5 days in data set [1] came out at 21.7 µM. The pEC50 with HIV-1 (IIIB) was 8.75.
As for `CCCCCOC(=O)Oc1c2n(cc(C(=O)NCc3ccc(F)cc3F)c1=O)[C@@H]1CN(C2=O)[C@@H](C)CC[C@]12CC(OC)=NO2` [Example 130, (3′S,5S,7′R)-10′-((2,4-difluorobenzyl)carbamoyl)-3-methoxy-3′-methyl-1′,11′-dioxo-1′,4′,5′,11′-tetrahydro-3′H,4H,7′H-spiro[isoxazole-5,6′-[2,7]methanopyrido[1,2-a][1,4]diazonin]-12′-yl pentyl carbonate], the CC50 at 5 days in data set [1] is 31.7 µM. In addition, the negative logarithm of the EC50 (pEC50) in the data set on HIV-1 (IIIB) was 8.74.
Consider `CCCCCCOC(=O)Oc1c2n(cc(C(=O)NCc3ccc(F)cc3F)c1=O)[C@@H]1CN(C2=O)[C@@H](C)CC[C@]12CC(C)=NO2` [Example 131, (3′S,5S,7′R)-10′-((2,4-difluorobenzyl)carbamoyl)-3,3′-dimethyl-1′,11′-dioxo-1′,4′,5′,11′-tetrahydro-3′H,4H,7′H-spiro[isoxazole-5,6′-[2,7]methanopyrido[1,2-a][1,4]diazonin]-12′-yl hexyl carbonate], for which, in data set [1], the 50% cytotoxic concentration (CC50) at 5 days was 19.8 µM. Besides, the negative-log EC50 (pEC50) in the data set with HIV-1 (IIIB) is 9.87.
Regarding `CCCCCCOC(=O)Oc1c2n(cc(C(=O)NCc3ccc(F)cc3F)c1=O)[C@@H]1CN(C2=O)[C@@H](C)CC[C@]12CC(OC)=NO2` [Example 132, (3′S,5S,7′R)-10′-((2,4-difluorobenzyl)carbamoyl)-3-methoxy-3′-methyl-1′,11′-dioxo-1′,4′,5′,11′-tetrahydro-3′H,4H,7′H-spiro[isoxazole-5,6′-[2,7]methanopyrido[1,2-a][1,4]diazonin]-12′-yl hexyl carbonate], in data set [1], the CC50 at 5 days was 17.8 µM. In addition, the pEC50 with HIV-1 (IIIB) was 9.82.
As for `CCCCCCCOC(=O)Oc1c2n(cc(C(=O)NCc3ccc(F)cc3F)c1=O)[C@@H]1CN(C2=O)[C@@H](C)CC[C@]12CC(C)=NO2` [Example 133, (3′S,5S,7′R)-10′-((2,4-difluorobenzyl)carbamoyl)-3,3′-dimethyl-1′,11′-dioxo-1′,4′,5′,11′-tetrahydro-3′H,4H,7′H-spiro[isoxazole-5,6′-[2,7]methanopyrido[1,2-a][1,4]diazonin]-12′-yl heptyl carbonate], the CC50 at 5 days in data set [1] was determined as 16.7 µM. Moreover, the pEC50 with HIV-1 (IIIB) was 9.09.
On to `CCCCCCCOC(=O)Oc1c2n(cc(C(=O)NCc3ccc(F)cc3F)c1=O)[C@@H]1CN(C2=O)[C@@H](C)CC[C@]12CC(OC)=NO2` [Example 134, (3′S,5S,7′R)-10′-((2,4-difluorobenzyl)carbamoyl)-3-methoxy-3′-methyl-1′,11′-dioxo-1′,4′,5′,11′-tetrahydro-3′H,4H,7′H-spiro[isoxazole-5,6′-[2,7]methanopyrido[1,2-a][1,4]diazonin]-12′-yl heptyl carbonate], for which the CC50 at 5 days in data set [1] is 25.7 µM. Moreover, the negative-log EC50 (pEC50) in the data set on HIV-1 (IIIB) was 9.29.
Turning to `CCCCCCCCOC(=O)Oc1c2n(cc(C(=O)NCc3ccc(F)cc3F)c1=O)[C@@H]1CN(C2=O)[C@@H](C)CC[C@]12CC(C)=NO2` [Example 135, (3′S,5S,7′R)-10′-((2,4-difluorobenzyl)carbamoyl)-3,3′-dimethyl-1′,11′-dioxo-1′,4′,5′,11′-tetrahydro-3′H,4H,7′H-spiro[isoxazole-5,6′-[2,7]methanopyrido[1,2-a][1,4]diazonin]-12′-yl octyl carbonate], the CC50 at 5 days in data set [1] worked out at 14.2 µM. The pEC50 in the data set with HIV-1 (IIIB) is 9.39.
Turning to `CCCCCCCCOC(=O)Oc1c2n(cc(C(=O)NCc3ccc(F)cc3F)c1=O)[C@@H]1CN(C2=O)[C@@H](C)CC[C@]12CC(OC)=NO2` [Example 136, (3′S,5S,7′R)-10′-((2,4-difluorobenzyl)carbamoyl)-3-methoxy-3′-methyl-1′,11′-dioxo-1′,4′,5′,11′-tetrahydro-3′H,4H,7′H-spiro[isoxazole-5,6′-[2,7]methanopyrido[1,2-a][1,4]diazonin]-12′-yl octyl carbonate], in data set [1], the CC50 at 5 days stood at 23.5 µM. For the same compound, the pEC50 with HIV-1 (IIIB) is 9.30.
Turning to `CCCCCCCCCOC(=O)Oc1c2n(cc(C(=O)NCc3ccc(F)cc3F)c1=O)[C@@H]1CN(C2=O)[C@@H](C)CC[C@]12CC(C)=NO2` [Example 137, (3′S,5S,7′R)-10′-((2,4-difluorobenzyl)carbamoyl)-3,3′-dimethyl-1′,11′-dioxo-1′,4′,5′,11′-tetrahydro-3′H,4H,7′H-spiro[isoxazole-5,6′-[2,7]methanopyrido[1,2-a][1,4]diazonin]-12′-yl nonyl carbonate], the CC50 at 5 days in data set [1] came out at 10.2 µM. For the same compound, the negative-log EC50 (pEC50) with HIV-1 (IIIB) was 8.68.
With `CCCCCCCCCOC(=O)Oc1c2n(cc(C(=O)NCc3ccc(F)cc3F)c1=O)[C@@H]1CN(C2=O)[C@@H](C)CC[C@]12CC(OC)=NO2` [Example 138, (3′S,5S,7′R)-10′-((2,4-difluorobenzyl)carbamoyl)-3-methoxy-3′-methyl-1′,11′-dioxo-1′,4′,5′,11′-tetrahydro-3′H,4H,7′H-spiro[isoxazole-5,6′-[2,7]methanopyrido[1,2-a][1,4]diazonin]-12′-yl nonyl carbonate], the 50% cytotoxic concentration (CC50) at 5 days in data set [1] amounted to 14.1 µM. Also, in the data set with HIV-1 (IIIB), the pEC50 was 8.67.
Regarding `CCCCCCCCCCOC(=O)Oc1c2n(cc(C(=O)NCc3ccc(F)cc3F)c1=O)[C@@H]1CN(C2=O)[C@@H](C)CC[C@]12CC(C)=NO2` [Example 139, decyl ((3′S,5S,7′R)-10′-((2,4-difluorobenzyl)carbamoyl)-3,3′-dimethyl-1′,11′-dioxo-1′,4′,5′,11′-tetrahydro-3′H,4H,7′H-spiro[isoxazole-5,6′-[2,7]methanopyrido[1,2-a][1,4]diazonin]-12′-yl) carbonate], the cytotoxic concentration (CC50) at 5 days in data set [1] is 13.2 µM. The pEC50 with HIV-1 (IIIB) is 9.00.
As to `CCCCCCCCCCOC(=O)Oc1c2n(cc(C(=O)NCc3ccc(F)cc3F)c1=O)[C@@H]1CN(C2=O)[C@@H](C)CC[C@]12CC(OC)=NO2` [Example 140, decyl ((3′S,5S,7′R)-10′-((2,4-difluorobenzyl)carbamoyl)-3-methoxy-3′-methyl-1′,11′-dioxo-1′,4′,5′,11′-tetrahydro-3′H,4H,7′H-spiro[isoxazole-5,6′-[2,7]methanopyrido[1,2-a][1,4]diazonin]-12′-yl) carbonate], the half-maximal cytotoxic concentration (CC50) at 5 days in data set [1] was 15.9 µM. For the same compound, the pEC50 with HIV-1 (IIIB) was 8.47.
For `CCCCCCCCCCCCOC(=O)Oc1c2n(cc(C(=O)NCc3ccc(F)cc3F)c1=O)[C@@H]1CN(C2=O)[C@@H](C)CC[C@]12CC(C)=NO2` [Example 141, (3′S,5S,7′R)-10′-((2,4-difluorobenzyl)carbamoyl)-3,3′-dimethyl-1′,11′-dioxo-1′,4′,5′,11′-tetrahydro-3′H,4H,7′H-spiro[isoxazole-5,6′-[2,7]methanopyrido[1,2-a][1,4]diazonin]-12′-yl dodecyl carbonate] the same measures were 16.5 µM and 8.58.
